Measured values published in the NIST ThermoML archive (doi:10.1016/j.jct.2004.10.005).

Assay: molar heat capacity at saturation pressure
Conditions: Vacuum adiabatic calorimetry

BrC12CC3CC(CC(C3)C1)C2 [1-bromotricyclo[3.3.1.1(3,7)]decane]
Conditions	molar heat capacity [J/K/mol]
5.98 K, Crystal 4	1.102
6.34 K, Crystal 4	1.301
6.73 K, Crystal 4	1.56
7.05 K, Crystal 4	1.776
7.4 K, Crystal 4	2.048
7.78 K, Crystal 4	2.391
8.34 K, Crystal 4	2.94
8.96 K, Crystal 4	3.558
9.37 K, Crystal 4	4.013
9.8 K, Crystal 4	4.489
10.27 K, Crystal 4	5.11
10.71 K, Crystal 4	5.643
11.11 K, Crystal 4	6.154
11.51 K, Crystal 4	6.677
11.92 K, Crystal 4	7.254
12.35 K, Crystal 4	7.849
12.82 K, Crystal 4	8.366
13.25 K, Crystal 4	9.058
14.09 K, Crystal 4	10.21
14.56 K, Crystal 4	10.84
15 K, Crystal 4	11.48
15.42 K, Crystal 4	12.01
15.87 K, Crystal 4	12.79
16.34 K, Crystal 4	13.48
16.79 K, Crystal 4	14.11
17.32 K, Crystal 4	14.74
17.91 K, Crystal 4	15.58
18.48 K, Crystal 4	16.3
19.01 K, Crystal 4	17.14
19.61 K, Crystal 4	17.85
20.29 K, Crystal 4	18.72
20.93 K, Crystal 4	19.58
21.63 K, Crystal 4	20.43
22.39 K, Crystal 4	21.39
23.1 K, Crystal 4	22.23
23.9 K, Crystal 4	23.12
24.76 K, Crystal 4	24.04
25.69 K, Crystal 4	25.07
26.66 K, Crystal 4	26.14
27.58 K, Crystal 4	27.16
28.56 K, Crystal 4	28.01
29.52 K, Crystal 4	28.99
29.57 K, Crystal 4	29.29
30.13 K, Crystal 4	29.69
30.42 K, Crystal 4	30.4
30.62 K, Crystal 4	30.95
30.71 K, Crystal 4	31.25
31.02 K, Crystal 4	33.37
31.27 K, Crystal 3	31.25
31.56 K, Crystal 3	31.24
31.81 K, Crystal 3	31.34
32.25 K, Crystal 3	31.61
33.06 K, Crystal 3	32.35
33.28 K, Crystal 3	32.47
34.66 K, Crystal 3	33.75
36.35 K, Crystal 3	35.07
38.12 K, Crystal 3	36.42
39.98 K, Crystal 3	37.78
41.9 K, Crystal 3	39.06
43.96 K, Crystal 3	40.39
46.12 K, Crystal 3	41.85
48.32 K, Crystal 3	43.17
50.74 K, Crystal 3	44.52
53.31 K, Crystal 3	45.98
55.82 K, Crystal 3	47.36
58.21 K, Crystal 3	48.67
60.62 K, Crystal 3	50.13
63.03 K, Crystal 3	51.45
65.43 K, Crystal 3	52.6
67.86 K, Crystal 3	54.08
70.3 K, Crystal 3	55.24
72.8 K, Crystal 3	56.68
75.3 K, Crystal 3	57.96
77.74 K, Crystal 3	59.21
80.19 K, Crystal 3	60.74
82.69 K, Crystal 3	61.79
85.17 K, Crystal 3	63.27
87.66 K, Crystal 3	64.58
90.17 K, Crystal 3	65.86
92.68 K, Crystal 3	67.39
95.2 K, Crystal 3	68.53
97.74 K, Crystal 3	70.12
100.3 K, Crystal 3	71.52
100.96 K, Crystal 3	71.76
102.83 K, Crystal 3	72.73
104.15 K, Crystal 3	73.63
105.3 K, Crystal 3	74.09
107.32 K, Crystal 3	75.22
110.3 K, Crystal 3	76.73
113.21 K, Crystal 3	78.44
116.14 K, Crystal 3	79.82
119.1 K, Crystal 3	81.75
122.01 K, Crystal 3	83.28
124.86 K, Crystal 3	84.61
127.91 K, Crystal 3	86.56
131.28 K, Crystal 3	88.26
134.63 K, Crystal 3	90.38
137.93 K, Crystal 3	91.96
141.17 K, Crystal 3	93.89
144.35 K, Crystal 3	95.86
147.49 K, Crystal 3	97.33
150.64 K, Crystal 3	99.37
153.81 K, Crystal 3	101.4
156.99 K, Crystal 3	103
160.16 K, Crystal 3	104.9
160.53 K, Crystal 3	105.5
163.7 K, Crystal 3	107.4
166.86 K, Crystal 3	109.4
169.99 K, Crystal 3	111.2
173.09 K, Crystal 3	113.3
176.19 K, Crystal 3	115.1
179.34 K, Crystal 3	117.2
182.56 K, Crystal 3	119.4
185.78 K, Crystal 3	121.5
189.07 K, Crystal 3	123.6
192.43 K, Crystal 3	126.2
195.86 K, Crystal 3	128.7
199.38 K, Crystal 3	130.9
202.85 K, Crystal 3	133.7
206.29 K, Crystal 3	135.9
209.76 K, Crystal 3	138.8
213.19 K, Crystal 3	141.4
216.58 K, Crystal 3	143.7
220.01 K, Crystal 3	146.7
223.4 K, Crystal 3	149.2
226.82 K, Crystal 3	152.2
230.32 K, Crystal 3	155.2
230.97 K, Crystal 3	155.8
234.32 K, Crystal 3	158.8
237.7 K, Crystal 3	162.3
241 K, Crystal 3	166.2
241.09 K, Crystal 3	165.9
244.38 K, Crystal 3	169.3
244.57 K, Crystal 3	169.7
247.65 K, Crystal 3	173
248.16 K, Crystal 3	173.6
251.11 K, Crystal 3	177.1
251.71 K, Crystal 3	177.8
254.61 K, Crystal 3	181.5
255.15 K, Crystal 3	182.1
257.99 K, Crystal 3	186.2
258.5 K, Crystal 3	187.1
261.32 K, Crystal 3	192.1
261.93 K, Crystal 3	193.3
264.6 K, Crystal 3	198.2
265.32 K, Crystal 3	200.1
267.83 K, Crystal 3	205.5
268.59 K, Crystal 3	207.2
271.04 K, Crystal 3	214.7
271.85 K, Crystal 3	217.2
274.2 K, Crystal 3	227.6
275.09 K, Crystal 3	231.6
277.23 K, Crystal 3	248.5
278.12 K, Crystal 3	258.4
279.76 K, Crystal 3	284.9
280.08 K, Crystal 3	308.9
280.17 K, Crystal 3	297.9
280.56 K, Crystal 3	309.4
280.94 K, Crystal 3	336.3
281.3 K, Crystal 3	377.6
281.63 K, Crystal 3	422.2
281.93 K, Crystal 3	523.4
282.18 K, Crystal 3	643.2
282.41 K, Crystal 2	586.3
282.52 K, Crystal 2	470.3
282.69 K, Crystal 2	384.2
283.04 K, Crystal 2	278.4
283.48 K, Crystal 2	248.5
283.93 K, Crystal 2	226.3
284.68 K, Crystal 2	219.3
285.09 K, Crystal 2	222.5
286.24 K, Crystal 2	214.2
288.26 K, Crystal 2	209.5
290.59 K, Crystal 2	211.1
291.43 K, Crystal 2	211.7
293.15 K, Crystal 2	212.4
294.62 K, Crystal 2	213.4
295.8 K, Crystal 2	213.7
298.44 K, Crystal 2	215.6
298.96 K, Crystal 2	215.9
301.06 K, Crystal 2	217.3
303.6 K, Crystal 2	220.7
306.07 K, Crystal 2	236.7
308.13 K, Crystal 2	437.7
312.39 K, Crystal 1	249
314.9 K, Crystal 1	250.6
314.98 K, Crystal 1	251.1
317.39 K, Crystal 1	253.5
317.63 K, Crystal 1	254
